Columns and labels:
[1] = mn = molality of the nth substance listed, in mol/kg; conditions: 100 kPa, Liquid; for viscosity: Capillary tube (Ostwald / Ubbelohde) method; for speed of sound: Frequency=3 MHz, Sing-around technique in a fixed-path interferometer; for mass density: Vibrating tube method
[2] = 100 kPa, Liquid, Capillary tube (Ostwald / Ubbelohde) method

NCC(=O)O [2-aminoacetic acid] + O
[1], m1 = 0.1
Conditions	mass density [kg/m3]	speed of sound [m/s]	viscosity [mPa·s]
293.15 K	1001.51	1488.2	1.016
298.15 K	1000.32	1502.2	0.9031
303.15 K	–	1514.4	0.808
308.15 K	–	1525	0.7271
313.15 K	995.401	1533.9	0.6645
318.15 K	–	1541.3	0.5988

N[C@@H](Cc1c[nH]cn1)C(=O)O [L-histidine] + O
[1], m1 = 0.1
Conditions	mass density [kg/m3]	speed of sound [m/s]	viscosity [mPa·s]
293.15 K	1003.99	1491.8	1.052
298.15 K	1002.8	1505.3	0.928
303.15 K	1001.33	1517.4	0.8289
308.15 K	999.656	1527.6	0.7447
313.15 K	997.795	1536.3	0.6783
318.15 K	995.765	1543.8	0.5915

CC(C)C[C@H](N)C(=O)O [L-leucine] + O
[1], m1 = 0.1
Conditions	mass density [kg/m3]	speed of sound [m/s]	viscosity [mPa·s]
293.15 K	1000.79	1494.9	1.06
298.15 K	999.575	1508.3	0.9398
303.15 K	998.115	1520.2	0.8362
308.15 K	996.485	1530.3	0.7509
313.15 K	994.559	1538.8	0.6801
318.15 K	992.305	1545.9	0.6014

CSCC[C@H](N)C(=O)O [L-methionine] + O
[1], m1 = 0.1
Conditions	mass density [kg/m3]	speed of sound [m/s]	viscosity [mPa·s]
293.15 K	1002.78	1493	1.034
298.15 K	1001.58	1506.7	0.92
303.15 K	1000.16	1518.5	0.8289
308.15 K	998.461	1528.7	0.7461
313.15 K	996.591	1537	0.6799
318.15 K	994.572	1544.2	0.6105

O [water]
[2]
Conditions	viscosity [mPa·s]
293.15 K	1.002
298.15 K	0.8903
303.15 K	0.7973
308.15 K	0.719
313.15 K	0.6526
318.15 K	0.596

O [water] + C[C@H](CCC(=O)[O-])[C@H]1CC[C@H]2[C@@H]3CC[C@@H]4C[C@H](O)CC[C@]4(C)[C@H]3C[C@H](O)[C@]12C.[Na+]
[1], m2 = 0
Conditions	mass density [kg/m3]	speed of sound [m/s]	viscosity [mPa·s]
293.15 K	–	–	1.002
298.15 K	–	–	0.8903
303.15 K	–	–	0.7973
308.15 K	–	–	0.719
313.15 K	–	1529.2	0.6526
318.15 K	990.256	1536.5	0.596

O [water] + C[C@H](CCC(=O)[O-])[C@H]1CC[C@H]2[C@@H]3[C@H](O)C[C@@H]4C[C@H](O)CC[C@]4(C)[C@H]3C[C@H](O)[C@]12C.[Na+]
[1], m2 = 0
Conditions	mass density [kg/m3]	speed of sound [m/s]	viscosity [mPa·s]
293.15 K	–	–	1.002
298.15 K	–	–	0.8903
303.15 K	–	–	0.7973
308.15 K	–	–	0.719
313.15 K	–	1529.2	0.6526
318.15 K	990.256	1536.5	0.596

— the NIST ThermoML archive (doi:10.1016/j.tca.2015.02.014)
